Counter-ions that a name gives are not always drawn. Like-named read-outs stand apart in the source and are kept apart here.
How the values were obtained:
[1] = molecular target: T1, EGFr isolated from solubilised A431 cell membranes (Homo sapiens, UniProt P00533); assay: Substrate phosphorylation assay, EGFr; assay type: biochemical; conditions: 30 minutes, room temperature, ATP and peptide at Km
T1 construct: EGFr isolated from solubilised A431 cell membranes; endogenous in cells; host or cells: A431 cells (solubilised membranes)
T1 sequence (P00533 25-1210): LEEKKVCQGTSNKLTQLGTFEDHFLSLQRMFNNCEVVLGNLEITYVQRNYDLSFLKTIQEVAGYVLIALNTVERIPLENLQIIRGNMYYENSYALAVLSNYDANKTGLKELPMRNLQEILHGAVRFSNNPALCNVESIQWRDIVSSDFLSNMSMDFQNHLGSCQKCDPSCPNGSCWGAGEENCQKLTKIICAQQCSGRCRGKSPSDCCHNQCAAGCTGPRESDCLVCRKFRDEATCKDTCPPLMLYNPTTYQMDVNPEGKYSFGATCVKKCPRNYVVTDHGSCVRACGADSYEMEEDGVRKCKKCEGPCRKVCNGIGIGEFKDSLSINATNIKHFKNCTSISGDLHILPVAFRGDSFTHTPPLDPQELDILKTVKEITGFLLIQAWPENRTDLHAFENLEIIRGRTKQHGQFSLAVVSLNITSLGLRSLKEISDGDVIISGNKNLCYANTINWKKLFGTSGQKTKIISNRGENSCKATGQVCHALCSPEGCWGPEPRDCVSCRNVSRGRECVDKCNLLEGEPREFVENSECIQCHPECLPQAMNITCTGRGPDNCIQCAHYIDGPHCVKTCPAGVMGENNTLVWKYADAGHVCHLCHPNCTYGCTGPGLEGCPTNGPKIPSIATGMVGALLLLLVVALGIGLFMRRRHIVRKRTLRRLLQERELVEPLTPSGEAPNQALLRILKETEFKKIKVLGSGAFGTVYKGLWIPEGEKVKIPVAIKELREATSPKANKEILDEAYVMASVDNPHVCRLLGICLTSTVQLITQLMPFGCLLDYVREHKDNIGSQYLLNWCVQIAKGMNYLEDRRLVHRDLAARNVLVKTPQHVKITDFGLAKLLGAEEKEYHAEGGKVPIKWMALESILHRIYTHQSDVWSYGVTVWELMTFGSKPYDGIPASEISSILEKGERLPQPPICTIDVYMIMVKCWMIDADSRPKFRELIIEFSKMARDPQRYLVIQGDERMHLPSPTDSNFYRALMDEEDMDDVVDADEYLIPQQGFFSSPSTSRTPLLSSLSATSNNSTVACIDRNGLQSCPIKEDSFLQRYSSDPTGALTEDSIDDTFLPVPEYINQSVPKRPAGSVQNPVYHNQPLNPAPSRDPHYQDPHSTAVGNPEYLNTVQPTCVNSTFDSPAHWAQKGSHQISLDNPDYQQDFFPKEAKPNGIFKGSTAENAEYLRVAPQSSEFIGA
Procedure: (§1) The substrate phosphorylation assays use baculovirus expressed, recombinant constructs of the intracellular domains of c-erbB-2 and c-erbB4 that are constitutively active and EGFr isolated from solubilised A431 cell membranes. The method measures the ability of the isolated enzymes to catalyse the transfer of the γ-phosphate from ATP onto tyrosine residues in a biotinylated synthetic peptide (Biotin-GluGluGluGluTyrPheGluLeuVal). The enzyme is incubated for 30 minutes, at room temperature, with 10 mM […], ATP and peptide at Km concentrations, and test compound (diluted from a 5 mM stock in DMSO, final DMSO concentration is 2%) in 40 mM HEPES buffer, pH 7.4. The reaction is stopped by the addition of EDTA (final concentration 0.15 mM) and a sample is transferred to a streptavidin-coated 96-well plate. The plate is washed and the level of phosphotyrosine on the peptide is determined using a Europium-labelled antiphosphotyrosine antibody and quantified with a time-resolved fluorescence technique. The results are shown in Table 1 as the IC50 values in nM.

[2] = molecular target: T2, c-erbB-2 (baculovirus expressed, recombinant intracellular domain) (Homo sapiens, UniProt P04626); assay: Substrate phosphorylation assay, c-erbB-2; assay type: biochemical; conditions: 30 minutes, room temperature, ATP and peptide at Km
T2 construct: recombinant constructs of the intracellular domains of c-erbB-2 and c-erbB4 that are constitutively active; made in house
T2 sequence (P04626 676-1255 limits assumed): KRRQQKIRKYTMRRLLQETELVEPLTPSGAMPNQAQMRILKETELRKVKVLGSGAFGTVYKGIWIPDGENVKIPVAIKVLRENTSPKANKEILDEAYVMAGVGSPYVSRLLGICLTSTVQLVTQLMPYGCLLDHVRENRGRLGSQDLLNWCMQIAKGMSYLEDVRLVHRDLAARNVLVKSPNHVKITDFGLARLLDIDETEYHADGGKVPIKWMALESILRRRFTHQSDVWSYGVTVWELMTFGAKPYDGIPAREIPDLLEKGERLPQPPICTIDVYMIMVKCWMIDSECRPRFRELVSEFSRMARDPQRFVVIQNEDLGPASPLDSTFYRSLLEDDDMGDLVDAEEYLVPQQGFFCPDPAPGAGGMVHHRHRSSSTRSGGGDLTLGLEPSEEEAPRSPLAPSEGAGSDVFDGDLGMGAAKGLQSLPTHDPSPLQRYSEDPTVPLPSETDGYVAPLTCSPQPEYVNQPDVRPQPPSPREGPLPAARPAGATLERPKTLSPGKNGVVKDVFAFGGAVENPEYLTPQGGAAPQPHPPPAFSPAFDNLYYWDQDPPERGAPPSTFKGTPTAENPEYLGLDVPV
Procedure: The substrate phosphorylation assays use baculovirus expressed, recombinant constructs of the intracellular domains of c-erbB-2 and c-erbB4 that are constitutively active and EGFr isolated from solubilised A431 cell membranes. […] The reaction is stopped by the addition of EDTA (final concentration 0.15 mM) and a sample is transferred to a streptavidin-coated 96-well plate. The plate is washed and the level of phosphotyrosine on the peptide is determined using a Europium-labelled antiphosphotyrosine antibody and quantified with a time-resolved fluorescence technique. The results are shown in Table 1 as the IC50 values in nM.

[3] = molecular target: T3, c-erbB4 (baculovirus expressed, recombinant intracellular domain) (Homo sapiens, UniProt Q15303); assay: Substrate phosphorylation assay, c-erbB4; assay type: biochemical; conditions: 30 minutes, room temperature, ATP and peptide at Km; read-out: Substrate Phosphorylation erbB-4 IC50
T3 construct: recombinant constructs of the intracellular domains of c-erbB-2 and c-erbB4 that are constitutively active; made in house
T3 sequence (Q15303 676-1308 limits assumed): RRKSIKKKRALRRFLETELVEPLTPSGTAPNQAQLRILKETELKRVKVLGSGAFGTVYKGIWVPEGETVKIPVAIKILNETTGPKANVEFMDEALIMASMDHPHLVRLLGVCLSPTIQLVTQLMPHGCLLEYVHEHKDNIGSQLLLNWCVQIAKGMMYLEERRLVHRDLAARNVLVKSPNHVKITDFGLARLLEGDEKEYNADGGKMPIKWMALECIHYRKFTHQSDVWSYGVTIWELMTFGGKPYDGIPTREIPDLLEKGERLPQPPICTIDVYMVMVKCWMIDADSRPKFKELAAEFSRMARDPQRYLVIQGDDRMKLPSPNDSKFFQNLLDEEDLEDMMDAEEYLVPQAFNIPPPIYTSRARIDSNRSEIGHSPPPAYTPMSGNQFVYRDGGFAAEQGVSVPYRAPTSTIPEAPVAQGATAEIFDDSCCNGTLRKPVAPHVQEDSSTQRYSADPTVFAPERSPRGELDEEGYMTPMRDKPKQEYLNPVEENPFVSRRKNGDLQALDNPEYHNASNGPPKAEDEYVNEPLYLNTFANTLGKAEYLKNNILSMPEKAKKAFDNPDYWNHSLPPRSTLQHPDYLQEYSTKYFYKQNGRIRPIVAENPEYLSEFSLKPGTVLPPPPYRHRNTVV
Procedure: as §1

[4] = tested on: HB4a cell line transformed by over-expression of c-erbB-2; assay: Cell proliferation assay, HB4a erbB-2; assay type: cell-based; conditions: Homo sapiens, 96 h, 4 days, methylene blue staining
Procedure: (§2) The cell proliferation assay uses an immortalised human breast epithelial cell line (HB4a) which has been transformed by over-expression of c-erbB-2. Growth of these cells in low serum is dependent upon the c-erbB-2 tyrosine kinase activity. […] Cells are plated at 3000/well in 96-well plates in […] medium and allowed to attach overnight. test compound is added in 0.1 ml medium, with a final concentration of 0.5% DMSO, and the plates incubated for 4 days at 37° C. The cells are then examined microscopically for evidence of morphological detransformation and cell mass is estimated by staining with methylene blue and measuring the absorbance at 620 nm. […] Activity against a range of naturally occurring EGFr or c-erbB-2 over-expressing human tumour cell lines (BT474-breast, HN5-head and neck, N87 gastric and Calu3-lung) is assessed with selected compounds by the same methodology.

[5] = tested on: HB4a cell line transfected with ras; assay: Cell proliferation assay, HB4a ras; assay type: cell-based; conditions: Homo sapiens, 96 h, 4 days, methylene blue staining, general toxicity comparison
[6] = tested on: BT474-breast tumour cell line; assay: Cell proliferation assay, BT474; assay type: cell-based; conditions: Homo sapiens, BT-474, 96 h; 4 days, methylene blue staining
Procedure: as §2

[7] = tested on: N87 gastric tumour cell line; assay: Cell proliferation assay, N87; assay type: cell-based; conditions: Homo sapiens, 96 h; 4 days, methylene blue staining
Procedure: as §2

[8] = tested on: Calu3-lung tumour cell line; assay: Cell proliferation assay, Calu3; assay type: cell-based; conditions: Homo sapiens, Calu-3, 96 h; 4 days, methylene blue staining
Procedure: as §2

[9] = tested on: HN5-head and neck tumour cell line; assay: Cell proliferation assay, HN5; assay type: cell-based; conditions: Homo sapiens, 96 h, read-out: Cell Proliferation HN5 IC50
Procedure: as §2

[10] = 4 days, methylene blue staining

| Structure (SMILES) | IC50 [1] | IC50 [2] | IC50 [3] | IC50 [7] | IC50 [9, 10] | IC50 [4] | IC50 [5] | IC50 [6] | IC50 [8] | IC50 [9] |
| --- | --- | --- | --- | --- | --- | --- | --- | --- | --- | --- |
| c1ccc(COc2ccc(Nc3ncnc4cnc(-c5ccc(CN6CCCCC6)o5)cc34)cc2)cc1 [Example 1, (4-Benzyloxy-phenyl)-(6-(5-piperidin-1-ylmethyl)-furan-2-yl)-pyrido3,4-d]pyrimidin-4-yl)-amine hydrochloride] | 170 nM | 70 nM | 1400 nM |  |  |  |  |  |  |  |
| c1ccc(COc2ccc(Nc3ncnc4cnc(-c5ccc(CNc6cccnc6)o5)cc34)cc2)cc1 [Example 5, (4-Benzyloxy-phenyl)-(6-(5-(pyridin-3-ylaminomethyl)-furan-2-yl)-pyrido[3,4-d]pyrimidin-4-yl)-amine] | 260 nM | 110 nM | 1600 nM |  |  | 5600 nM | 8200 nM |  |  |  |
| CN(C)C(=O)[C@@H]1CCCN1Cc1ccc(-c2cc3c(Nc4ccc(OCc5ccccc5)cc4)ncnc3cn2)o1 [Example 16, (2S)-1-{-5-[4-(4-Benzyloxy-phenylamino)-pyrido[3,4-d]pyrimidin-6-yl]-furan-2-ylmethyl}-pyrrolidine-2-carboxylic acid dimethylamide] |  | 280 nM | 2800 nM | 670 nM | 3300 nM | 2100 nM | 7900 nM |  |  |  |
| CN1CCN(Cc2ccc(-c3cc4c(Nc5ccc(OCc6ccccc6)cc5)ncnc4cn3)o2)CC1 [Example 2, (4-Benzyloxy-phenyl)-(6-(5-(4-methyl-piperazin-1-ylmethy)-furan-2-yl)pyrido[3,4-d]pyrimidin-4-yl)-amine] | 170 nM | 60 nM | 760 nM |  |  | 430 nM | 2100 nM |  |  |  |
| NC(=O)[C@H]1CCCN1Cc1ccc(-c2cc3c(Nc4ccc(OCc5ccccc5)cc4)ncnc3cn2)o1 [Example 13, (2R)-1-{5-[4-(4-Benzyloxy-phenylamino)-pyrido[3,4-d]pyrimidin-6-yl]-furan-2-ylmethyl}pyrrolidine-2-carboxalic acid amide hydrochloride] |  | 14 nM | 480 nM |  |  | 170 nM | > 50000 nM |  |  | 350 nM |
| OCc1ccc(-c2cc3c(Nc4ccc(OCc5ccccc5)cc4)ncnc3cn2)o1 [Example 12, (5-4-(4-(4-Benzyloxy-phenylamino)-pyrido[3,4-d]pyrimidin-6-yl)-furan-2-yl)-methanol hydrochloride] | 31 nM | 4 nM | 490 nM |  |  | 440 nM | 7600 nM |  |  | 460 nM |
| NC(=O)[C@@H]1CCCN1Cc1ccc(-c2cc3c(Nc4ccc(OCc5ccccc5)cc4)ncnc3cn2)o1 [Example 7, (2S)-1-(5-(4-(4-Benzyloxy-phenylamino)-pyrido[3,4-d]pyrimidine-6-yl)-furan-2-ylmethyl)-pyrrolidine-2-carboxylic acid amide hydrochloride] | 79 nM | 44 nM | 84 nM |  |  | 410 nM | 15000 nM |  |  |  |
| CN(CC(N)=O)Cc1ccc(-c2cc3c(Nc4ccc(OCc5ccccc5)cc4)ncnc3cn2)o1 [Example 8, 2-((5-(4-(4-Benzyloxy-phenylamino)-pyrido[3,4-d]pyrimidin-6-yl)-furan-2-ylmethyl)-methylamino)-acetamide] | 720 nM | 11 nM | 160 nM | 60 nM |  | 100 nM | 41000 nM | 380 nM | 340 nM | 350 nM |
| CN(CCS(C)(=O)=O)Cc1ccc(-c2cc3c(Nc4ccc(OCc5ccccc5)cc4)ncnc3cn2)o1 [Example 15] |  | 30 nM | 1500 nM |  |  | 300 nM | 8500 nM |  |  |  |

More lines, main results first:

| IC50 [1] | IC50 [2] | IC50 [3] | IC50 [7] | IC50 [9, 10] | Structure (SMILES) | IC50 [4] | IC50 [5] | IC50 [6] | IC50 [8] | IC50 [9] |
| --- | --- | --- | --- | --- | --- | --- | --- | --- | --- | --- |
| 88 nM | 19 nM | 450 nM |  |  | O=C(O)CNCc1ccc(-c2cc3c(Nc4ccc(OCc5ccccc5)cc4)ncnc3cn2)o1 [Example 11, ((5-(4-(4-Benzyloxy-phenylamino)-pyrido[3,4-d]pyrimidine-6yl)-furan-2-ylmethyl)-amino)-acetic acid hydrochloride] | 50000 nM | 5900 nM |  |  |  |
|  | 29 nM | 760 nM | 150 nM | 720 nM | CS(=O)(=O)NCCNCc1ccc(-c2cc3c(Nc4ccc(OCc5ccccc5)cc4)ncnc3cn2)o1 [Example 17, N-(2-((5-(4-(4-Benzyloxy-phenylamino)-pyrido[3,4-d]pyrimidin-6-yl)-furan-2-ylmethyl)-amino)-ethyl)-methanesulphonamide hydrochloride] | 250 nM | 3500 nM | 100 nM | 3700 nM |  |
| 95 nM | 7 nM | 1000 nM |  |  | CC(=O)NCCNCc1ccc(-c2cc3c(Nc4ccc(OCc5ccccc5)cc4)ncnc3cn2)o1 [Example 9] | 730 nM | 3900 nM |  |  |  |
| 380 nM | 98 nM | 2400 nM |  |  | CN(C)Cc1ccc(-c2cc3c(Nc4ccc(OCc5ccccc5)cc4)ncnc3cn2)o1 [Example 6, (4-Benzyloxy-phenyl)6-(5-(dimethyyaminomethyl)-furan-2-yl)pyrido[3,4-d]pyrimidin4-yl)-amine hydrochloride] | 1500 nM | 2200 nM |  |  |  |
| 140 nM | 22 nM |  |  |  | C[S+]([O-])CCNCc1ccc(-c2cc3c(Nc4ccc(OCc5ccccc5)cc4)ncnc3cn2)o1 (stereo not drawn) [Example 10, (4-Benzyloxy-phenyl)-(6-(5-((2-methanesulphinyl-ethylamino)-methyl)-furan-2-yl)-pyrido[3,4-d]pyrimidin-4-yl)-amine] | 250 nM | 8700 nM |  |  |  |
| 130 nM | 13 nM | 530 nM |  |  | COC(=O)CNCc1ccc(-c2cc3c(Nc4ccc(OCc5ccccc5)cc4)ncnc3cn2)o1 [Example 4, ((5-4-(4-Benzloxy-phenylamino)-pyrido[3,4-d]pyrimidin-6-yl)-furan-2-ylmethyl)-amino)-acetic acid methyl ester hydrochloride] | 29000 nM | 16000 nM |  |  |  |
| 140 nM | 10 nM | 190 nM |  |  | CS(=O)(=O)CCNCc1ccc(-c2cc3c(Nc4ccc(OCc5ccccc5)cc4)ncnc3cn2)o1 [Example 3, 4-Benzyloxy-phenyl)-(6-(5-((2-methanesulphonyl-ethylamino)methyl)-furan-2-yl-pyrido[3,4-d]pyrimidin-4-yl)-amine hydrochloride] | 500 nM | 31000 nM |  |  |  |
|  | 420 nM | 3900 nM |  |  | CS(=O)(=O)CCCNCc1ccc(-c2cc3c(Nc4ccc(OCc5ccccc5)cc4)ncnc3cn2)o1 [Example 14] |  |  |  |  |  |

— US6207669A, “Bicyclic heteroaromatic compounds as protein tyrosine kinase inhibitors” (Glaxo Wellcome Inc., priority 1996, dated 2001)
